Experiment in all cases: NCI tumour cell line growth inhibition, 48 h
In assay [1] the test system is CCRF-CEM leukemia.
Assay [2] concerns HS 578T breast.
For assay [3], the system named is LOX IMVI melanoma.
The test system of assay [4] is MDA-MB-435.
Assay [5] concerns OVCAR-3 ovarian.
In assay [6] the test system is SF-539 CNS.
Assay [7] concerns SK-MEL-2 melanoma.
For assay [8], the system named is HCC-2998 colon.

SMILES strings stand for the structures.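 Step 1: Grow cells in 96-well plates. Step 2: Expose to compound for 48 hours at 5 concentrations. Step 3: Interpolate endpoints linearly; if unreached, use highest concentration. Here, GI50 denotes the concentration required for 50% inhibition of growth. TGI marks complete inhibition of growth.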

In the case of `CC12CCC3c4ccc(O)cc4CCC3C1C/C(=N\O)C2O` (centres undefined), the TGI in assay [1], in assay [2], in assay [3], in assay [4], in assay [5] and in assay [6] was above 100 µM in each case. In addition, the TGI in assay [7] was above 100 µM.

In the case of `O=C(Nc1ccc(Cl)c(C(F)(F)F)c1)c1ccc(NC2=C(Cl)C(=O)N(Cc3ccccc3)C2=O)cc1`, the GI50 in assay [1] was 1.98 µM; in assay [2], 2.43 µM; in assay [3], 1.24 µM; in assay [4], 19.1 µM; in assay [5] it was 18.6 µM; in assay [6], 8.92 µM. Moreover, the GI50 in assay [7] was 13.8 µM. In addition, the TGI amounted to 6.07 µM in assay [1]; 5.67 µM in assay [2]; 2.63 µM in assay [3]; 36.8 µM in assay [4]; 37.9 µM in assay [5]; 23.9 µM in assay [6]. This compound displayed a TGI in assay [7] of 38.7 µM.

Turning to `COC(=O)c1cc2c(s1)-c1nccc3c1c(nc1ccccc13)C2=O`, the GI50 was above 100 µM in assay [1]; 28.2 µM in assay [2]; 29 µM in assay [3]; 17.7 µM in assay [4]; 16.5 µM in assay [5]; above 100 µM in assay [7]. Besides, the TGI was above 100 µM in assay [1]; above 100 µM in assay [2]; above 100 µM in assay [3]; 32 µM in assay [4]; 56.2 µM in assay [5]; above 100 µM in assay [7].

Regarding `COc1ccc(-c2cc(/C=C/C(=O)c3ccc(OC)c(OC)c3)[nH]n2)cc1`, the GI50 in assay [1] was 1.34 µM; in assay [8] it was 2.02 µM; in assay [2] it was 3.38 µM; in assay [4], 1.84 µM; in assay [5], 1.19 µM; in assay [6], 1.27 µM. In addition, the TGI in assay [1] stood at 4.14 µM; in assay [8] it was 3.97 µM; in assay [2], 29 µM; in assay [4] it was 3.88 µM; in assay [5], 2.47 µM; in assay [6], 2.61 µM.

For the compound `Oc1ccc2ccccc2c1N=Nc1ccc(Br)cc1`, the TGI in assay [1], in assay [2], in assay [3], in assay [4], in assay [5] and in assay [7] was above 100 µM in each case.

Take `CSc1ccccc1C#C/C=C\C#Cc1ccccc1N`: the GI50 in assay [1] was 4.98 µM; in assay [3] it was 9.52 µM; in assay [4], 0.982 µM; in assay [5] it was 0.836 µM; in assay [6] it was 7.2 µM; in assay [7] it was 6.13 µM. The TGI in assay [1] was above 100 µM; in assay [3] it was 25.2 µM; in assay [4] it was 2.49 µM; in assay [5] it was 3.98 µM; in assay [6], 23.6 µM; in assay [7], above 100 µM.

For `Cc1cc2cc3c(=O)[nH]c(=O)[nH]c3nc2cc1C`, the TGI in assay [2], in assay [3], in assay [4], in assay [5], in assay [6] and in assay [7] was above 100 µM throughout.

Turning to `O=C(Nc1cc(C(F)(F)F)ccc1Cl)c1cccc(NC2=C(Cl)C(=O)N(Cc3ccccc3)C2=O)c1`, the GI50 in assay [1] was 2.71 µM; in assay [2] it was 53.7 µM; in assay [3], 5.65 µM; in assay [4] it was 15.7 µM; in assay [5], 34.3 µM; in assay [6], 26.4 µM. In addition, in assay [7], the GI50 was 30.8 µM. The TGI in assay [1] was above 100 µM; in assay [2], above 100 µM; in assay [3], above 100 µM; in assay [4] it was above 100 µM; in assay [5], above 100 µM; in assay [6], 53.7 µM. In addition, in assay [7], the TGI is above 100 µM.

On to `Oc1ccc(Nc2c3ccccc3nc3occ(Cl)c23)cc1`, for which the GI50 in assay [1] is 1.42 µM; in assay [2] it was 5.62 µM; in assay [3], 6.68 µM; in assay [4], 1.53 µM; in assay [5], 3.12 µM; in assay [7] it was 2.62 µM. Moreover, the TGI in assay [1] was 6.12 µM; in assay [2] it was above 100 µM; in assay [3], above 100 µM; in assay [4] it was 6.51 µM; in assay [5], 8.76 µM; in assay [7], 7.26 µM.

With `Cn1cc(-c2csc(-c3c[nH]c4ccc(Br)cc34)n2)c2cnccc21`, the GI50 was 0.422 µM in assay [1]; 2.47 µM in assay [2]; 2.08 µM in assay [5]; 2.14 µM in assay [6]; 2.58 µM in assay [7]. Moreover, the TGI turned out to be 1.86 µM in assay [1]; 5 µM in assay [2]; 4.19 µM in assay [5]; 4.6 µM in assay [6]; 6.35 µM in assay [7].

With `Cc1nc2cc(Nc3nc(Nc4ccc(F)cc4)nc(-c4cccs4)n3)ccc2n1Cc1ccccc1`, the GI50 is 2.46 µM in assay [1]; 3.81 µM in assay [2]; 2.36 µM in assay [3]; 3.85 µM in assay [4]; 4.87 µM in assay [5]; 3.27 µM in assay [6]. In addition, the GI50 in assay [7] was 2.36 µM. The TGI in assay [1] was 7.21 µM; in assay [2], above 100 µM; in assay [3], 5.85 µM; in assay [4], 35.2 µM; in assay [5], 38.1 µM; in assay [6] it was 12.9 µM. This compound also had a TGI in assay [7] of 5.44 µM.

Regarding `C#Cc1nc(Nc2cc(C)[nH]n2)c2ccccc2n1`, the GI50 in assay [1] is 0.248 µM; in assay [8] it was 0.216 µM; in assay [2], 0.318 µM; in assay [3], 0.151 µM; in assay [4], 0.213 µM; in assay [5], 0.242 µM. Besides, the GI50 in assay [6] is 0.189 µM. The TGI in assay [1] is 1.31 µM; in assay [8] it was 0.466 µM; in assay [2] it was above 46.2 µM; in assay [3] it was 0.308 µM; in assay [4] it was 0.563 µM; in assay [5], 0.52 µM. In addition, in assay [6], the TGI is 0.451 µM.

For the compound `CC(C)=CCc1cc2c(cc1O)OC[C@H]1c3cc4c(cc3O[C@@H]21)OCO4`, the TGI in assay [1] is 80.8 µM; in assay [2], 75.5 µM; in assay [3] it was 31.7 µM; in assay [4], 91.9 µM; in assay [5], above 100 µM; in assay [6], above 100 µM.
